Series [1] deals with CHO Chinese hamster ovary cells. Put plainly: Sulforhodamine B cytotoxicity, CHO. It counts as cell-based. The settings on record: Cricetulus griseus; CHO, normal cells. The method, then:
(§1) In addition to the screening already discussed, several of the before-described compounds and chimeras were screened against several or all of a panel of ten to twenty-five cancerous cell lines as target cells and seven "normal" cell preparations. This screening utilized a sulforhodamine B cytotoxidity assay as discussed below.
(§2) IC50 values; i.e., the concentration of Compound required to kill one-half of the treated cells, were then calculated.

Series [2] concerns Ovcar-3 ovarian carcinoma cells. The series is described as follows: Sulforhodamine B cytotoxicity, Ovcar-3. It counts as cell-based. The settings on record: Homo sapiens, OVCAR-3, Ovcar-3; read-out: IC50. The method, then:
as §1, §2

A short description of a further series: Water solubility. Format: physicochemical.
For series [3], the system named is MCF-7(ADR) breast carcinoma cells. Put plainly: Sulforhodamine B cytotoxicity, MCF-7/ADR. It counts as cell-based. The note with it: Homo sapiens, NCI/ADR-RES, Adriamycin resistant. The method, then:
as §1, §2

For series [4], the system named is MCF-7 breast carcinoma cells. Put plainly: Sulforhodamine B cytotoxicity, MCF-7. Format: cell-based. The note with it: Homo sapiens, MCF7, MCF-7; read-out: IC50. The method, then: as §1, §2
Series [5] relates to HMEC human mammary epithelial cells. The series is described as follows: Sulforhodamine B cytotoxicity, HMEC. Format: cell-based. The note with it: Homo sapiens, normal cells. The method, then: as §1, §2
HMEC Human mammary epithelial cells

The test system of series [6] is SIHA cervical carcinoma cells. Put plainly: Sulforhodamine B cytotoxicity, SIHA. Format: cell-based. The note with it: Homo sapiens. The procedure: as §1, §2
Series [7] concerns H-322 lung carcinoma cells. The series is described as follows: Sulforhodamine B cytotoxicity, H-322. Format: cell-based. The settings on record: NCI-H322; H-322; read-out: IC50. The method, then:
as §1, §2

The subject of series [8] is Capan-1 pancreatic carcinoma cells. The series is described as follows: Sulforhodamine B cytotoxicity, Capan-1. Format: cell-based. The settings on record: Homo sapiens, CAPAN-1, Capan-1; read-out: IC50. The method, then: as §1, §2
Series [9] deals with NHDF normal human dermal fibroblasts. The series is described as follows: cells. Format: cell-based. The note with it: NHDF. The procedure: as §1, §2
NHDF Normal human dermal fibroblasts

The subject of series [10] is HT-29 colon carcinoma cells. Put plainly: Sulforhodamine B cytotoxicity, HT-29. The settings on record: Homo sapiens, HT-29, colon carcinoma H-29 (Table 4) / HT-29 (Table 5); read-out: IC50. Format: cell-based. The method, then: as §1, §2
Series [11] deals with HL-60 promyeocytic leukemia cells. The series is described as follows: Sulforhodamine B cytotoxicity, HL-60. Format: cell-based. The note with it: Homo sapiens, HL-60, HL-60; read-out: IC50. The procedure:
as §1, §2

Series [12] relates to NHEK normal human epidermal keratinocytes. The series is described as follows: Sulforhodamine B cytotoxicity, NHEK. Format: cell-based. The settings on record: normal cells. The method, then:
as §1, §2
NHEK Normal human epidermal keratinocytes

For series [13], the system named is PC-3 prostate carcinoma cells. The series is described as follows: Sulforhodamine B cytotoxicity, PC-3. Format: cell-based. The settings on record: Homo sapiens. The method, then: as §1, §2
Series [14] deals with MOLT-4 (Leukemia) cell line. The series is described as follows: cells. Format: cell-based. The note with it: Homo sapiens, MOLT-4, Molt-4 leukemia cell line; read-out: IC50. Put shortly: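 Target cells, drawn from cancerous lines and normal preparations, are treated with compound and assessed by sulforhodamine B. From this, the concentration killing one-half of the treated cells is calculated as the IC50.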

The subject of another series is SK-Mel-28 melanoma cells. The series is described as follows: Sulforhodamine B cytotoxicity, SK-Mel-28. Format: cell-based. The settings on record: Homo sapiens, SK-MEL-28, SK-Mel-28; read-out: IC50. The method, then: as §1, §2
Another series concerns cancer cell lines. Put plainly: cells. Format: cell-based. The settings on record: Average data obtained from 5~10 cell lines; read-out: IC50 (average).
The test system of series [15] is MB49 murine bladder carcinoma cells. Put plainly: 6-well cytotoxicity assay, MB49. Format: cell-based. The note with it: MB-49. The procedure:
MIA PaCa-2 cells, MB-49, CV-1 or WI-38 cells were loaded into each well of a 6-well plate at a density of 100,000 cells/well in 3 ml culture medium. They were incubated for 4 hours (37° C., 7 percent CO2). Then 6 microliters of solution containing a compound to be assayed were added into 3 ml of medium (RPMI-1640, with 5 percent fetal bovine serum and 1 percent glutamine) in a 500X dilution so that in one well ethanol was added to make a 0.2 percent ethanol control. The plates were then incubated for 4 days (37° C., 7 percent CO2). The medium was then drained, crystal violet dye (Hucker formula) was added to cover the well bottoms and then they were rinsed with tap water until rinses were clear. The stained cells were solubilized for quantitation with Sarkosyl solution (N-Lauryl sarcosine, 1 percent in water) at 3 ml/well. The absorbance of the solution was then read at 590-650 nm.

The next series relates to φX174 Form I DNA. The settings on record: literature; cited from earlier work.
For series [16] the following is noted: mice, comparison value; cited from earlier work.

These results are taken from patent US5281710A, “Dynemicin analogs: synthesis, methods of preparation and use” (The Scripps Research Institute, priority 1992, dated 1994).

Entries after “also recorded” stand apart in the source; their conditions may differ. Some results are limits rather than exact numbers.

What is called IC50 is the midpoint of a concentration-inhibition curve. For orientation: LD50 means the dose expected to kill half of the subjects tested.

Regarding `C[N+](C)(C)CC(=O)OCCOc1ccc2c(c1)[C@@]13O[C@]14CCC[C@H]3C#C/C=C\C#C[C@@H]4N2C(=O)OCCS(=O)(=O)c1ccccc1` (relative stereo) [Compound 250], the IC50 in [1] is 98 nM; in series [2] it was greater than 98 nM; in [3] it was 190 nM; in [4] it was greater than 98 nM; in series [5], 3100 nM; in [6], greater than 98 nM. Further, the IC50 in series [7] is 13000 nM; in series [8], greater than 98 nM; in [9] (Homo sapiens, normal cells, read-out: IC50), 6300 nM; in series [10] it was 190 nM; in series [11], greater than 98 nM; in [12] it was 1600 nM. The figures for the IC50 (in series [13]; in series [14]; with SK-Mel-28 melanoma cells) were 1600 nM, roughly 100000 nM and 3100 nM, respectively. Also, the water solubility entry in the series “Water solubility” is recorded as “enhanced water solubility as compared to Compound 153; also recorded: more water soluble derivative of Compound 153”.

As for `O=C(Oc1ccccc1)N1c2ccccc2C23OC24CCCC3(O)C#C/C=C\C#CC14` (stereo not drawn) [Compound 2], the half-inhibitory concentration (IC50) in the series on cancer cell lines was 6300 nM. Besides, the anti-tumor cell activity entry in series [15] is recorded as “more active against the cancerous MB-49 cells than against non-transformed CV-1 African green monkey kidney cells (ATCC CCL 70) or WI-38 human lung cells”.

Turning to `CCN[C@H]1CO[C@@H](O[C@H]2[C@H](O[C@H]3C#C/C=C\C#C[C@]4(O)CC(=O)C(NC(=O)OC)=C3/C4=C\CSSSC)O[C@H](C)[C@@H](NO[C@H]3C[C@H](O)[C@H](SC(=O)c4c(C)c(I)c(O[C@@H]5O[C@@H](C)[C@H](O)[C@@H](OC)[C@H]5O)c(OC)c4OC)[C@@H](C)O3)[C@@H]2O)C[C@@H]1OC` [Calicheamicin], in [9] (control drugs, read-out: Range of Average IC50 Values, NHDF), the half-inhibitory concentration (IC50) turned out to be 2.5 nM. In addition, the “DNA cleavage sequence specificity” value in the series on φX174 Form I DNA is reported as “double DNA strand cuts at specific sequences”. Also, in series [16], the LD50 was 5 µg/kg.
